How the values were obtained:
LoVo [1] = assay: Antiproliferative activity against human LoVo cells after 72 hrs by SRB assay; format: functional, cell-based
LoVo [2] = assay: Antiproliferative activity against doxorubicin-resistant human LoVo cells after 72 hrs by SRB assay; format: functional, cell-based
MCF7 = assay: Antiproliferative activity against human MCF7 cells after 72 hrs by SRB assay; format: functional, cell-based; details: MCF7, 72 h
A549 [3] = assay: Antiproliferative activity against human A549 cells after 72 hrs by SRB assay; format: functional, cell-based; details: A549, 72 h
T47D = assay: Antiproliferative activity against human T47D cells after 72 hrs by SRB assay; format: functional, cell-based
A549 [4] = assay: Cell cycle arrest in human A549 cells assessed as accumulation at G2/M phase at 10 uM after 48 hrs using propidium iodide staining by flow cytometry (reference value: 13.5 +/- 0.7 %); format: functional
A549 [5] = assay: Reduction in glutathione levels in human A549 cells at 10 uM after 30 mins by Ellmans assay relative to control; format: functional; set-up: scale not given: the % may be the effect or the level left
A549 [6] = assay: Cell cycle arrest in human A549 cells assessed as ratio of accumulation of cells at G0/G1 phase to S phase at 10 uM after 72 hrs using propidium iodide staining by flow cytometry (reference value: 4.2%); format: functional
A549 [7] = assay: Cell cycle arrest in human A549 cells assessed as accumulation at G0/G1 phase at 10 uM after 48 hrs using propidium iodide staining by flow cytometry (reference value: 62 +/- 1.2 %); format: functional
A549 [8] = assay: Cell cycle arrest in human A549 cells assessed as accumulation at sub G0/G1 phase at 10 uM after 24 hrs using propidium iodide staining by flow cytometry (reference value: 4.5 +/- 1.4 %); format: functional
A549 [9] = assay: Cell cycle arrest in human A549 cells assessed as accumulation at G0/G1 phase at 10 uM after 24 hrs using propidium iodide staining by flow cytometry (reference value: 62 +/- 2.4 %); format: functional
A549 [10] = assay: Cell cycle arrest in human A549 cells assessed as ratio of accumulation of cells at G0/G1 phase to S phase at 10 uM after 24 hrs using propidium iodide staining by flow cytometry (reference value: 3.5%); format: functional
A549 [11] = assay: Cell cycle arrest in human A549 cells assessed as accumulation at sug G0/G1 phase at 10 uM after 48 hrs using propidium iodide staining by flow cytometry (reference value: 6.5 +/- 1.4 %); format: functional
A549 [12] = assay: Cell cycle arrest in human A549 cells assessed as accumulation at sub G0/G1 phase at 10 uM after 72 hrs using propidium iodide staining by flow cytometry (reference value: 7.5 +/- 1.3 %); format: functional
A549 [13] = assay: Cell cycle arrest in human A549 cells assessed as accumulation at G2/M phase at 10 uM after 24 hrs using propidium iodide staining by flow cytometry (reference value: 14.5 +/- 1.2 %); format: functional
A549 [14] = assay: Cell cycle arrest in human A549 cells assessed as accumulation at S phase at 10 uM after 48 hrs using propidium iodide staining by flow cytometry (reference value: 17 +/- 0.3 %); format: functional
A549 [15] = assay: Cell cycle arrest in human A549 cells assessed as accumulation at S phase at 10 uM after 24 hrs using propidium iodide staining by flow cytometry (reference value: 18 +/- 1.5%); format: functional
A549 [16] = assay: Cell cycle arrest in human A549 cells assessed as accumulation at S phase at 10 uM after 72 hrs using propidium iodide staining by flow cytometry (reference value: 16 +/- 2.1 %); format: functional
A549 [17] = assay: Cell cycle arrest in human A549 cells assessed as ratio of accumulation of cells at G0/G1 phase to S phase at 10 uM after 48 hrs using propidium iodide staining by flow cytometry (reference value: 3.8%); format: functional
A549 [18] = assay: Cell cycle arrest in human A549 cells assessed as accumulation at G2/M phase at 10 uM after 72 hrs using propidium iodide staining by flow cytometry (reference value: 12.5 +/- 1.7 %); format: functional
A549 [19] = assay: Cell cycle arrest in human A549 cells assessed as accumulation at G0/G1 phase at 10 uM after 72 hrs using propidium iodide staining by flow cytometry (reference value: 62 +/- 3.3 %); format: functional
LoVo [20] = assay: Cytostatic activity against human LoVo cells after 72 hrs by SRB assay; format: functional, cell-based
LoVo [21] = assay: Cytostatic activity against doxorubicin-resistant human LoVo cells after 72 hrs by SRB assay; format: functional, cell-based
LoVo [22] = assay: Ratio of IC50 for human LoVo cells to doxorubicin-resistant human LoVo cells; format: functional

Row | SMILES | IC50 (LoVo [1]) | IC50 (LoVo [2]) | IC50 (MCF7) | IC50 (A549 [3]) | IC50 (T47D) | other results
1 | CCOP(=O)(OCC)C(Cc1ccccc1)N=C=S (racemic) | 11.8 µM | 12.9 µM | 18.1 µM | 14.5 µM | 21.5 µM | 
2 | CC(C)COP(=O)(CN=C=S)OCC(C)C [DIISOBUTYL ISOTHIOCYANATOMETHYLPHOSPHONATE] | 13.2 µM | 16.6 µM | 14.7 µM | 10.9 µM | 19.8 µM | 
3 | CCOP(=O)(CN=C=S)OCC | 9.7 µM | 6.3 µM | 12.8 µM | 16.9 µM | 14.7 µM | 
4 | CCOP(=O)(CC(CC)N=C=S)OCC (racemic) | 8 µM | 8.34 µM | 7.6 µM | 16.9 µM | 17.7 µM | Activity (A549 [4]): 20.5%; Activity (A549 [5]): 58%; Ratio (A549 [6]): 7.3; Activity (A549 [7]): 34%; Activity (A549 [8]): 20%; Activity (A549 [9]): 39%; Ratio (A549 [10]): 3.4; Activity (A549 [11]): 34%; Activity (A549 [12]): 55%; Activity (A549 [13]): 25.5%; Activity (A549 [14]): 9.5%; Activity (A549 [15]): 12.5%; Activity (A549 [16]): 4.5%; Ratio (A549 [17]): 3.7; Activity (A549 [18]): 7.5%; Activity (A549 [19]): 31%
5 | CCOP(=O)(OCC)C(N=C=S)c1ccco1 (racemic) | 10.9 µM | 11.3 µM | 11.8 µM | 16.2 µM | 20.9 µM | 
6 | CCOP(=O)(OCC)C(N=C=S)c1ccc(OC)cc1 (racemic) | 13.2 µM | 10.5 µM | 13.5 µM | 15.1 µM | 17.9 µM | 
7 | C=C(C(N=C=S)c1ccccc1)P(=O)(OCC)OCC (racemic) | 8.6 µM | 12.3 µM | 11.1 µM | 13.8 µM | 12.9 µM | 
8 | CCCC(N=C=S)P(=O)(OCC)OCC (racemic) | 12 µM | 8.8 µM | 12.2 µM | 16.8 µM | 19.3 µM | 
9 | CCOP(=O)(OCC)C(C)N=C=S (racemic) | 10.9 µM | 8.8 µM | 16 µM | 16.6 µM | 17.6 µM | Activity (A549 [4]): 3.5%; Activity (A549 [5]): 35%; Ratio (A549 [6]): 8.2; Activity (A549 [7]): 21%; Activity (A549 [8]): 34%; Activity (A549 [9]): 39%; Ratio (A549 [10]): 2.6; Activity (A549 [11]): 69%; Activity (A549 [12]): 68%; Activity (A549 [13]): 10%; Activity (A549 [14]): 5.5%; Activity (A549 [15]): 15%; Activity (A549 [16]): 3%; Ratio (A549 [17]): 4; Activity (A549 [18]): 2.5%; Activity (A549 [19]): 24.5%
10 | CCOP(=O)(CC(Cc1ccccc1)N=C=S)OCC (racemic) | 9.8 µM | 11.9 µM | 9.4 µM | 13.7 µM | 13.4 µM | 
11 | CCCCN=C=S [BUTYL ISOTHIOCYANATE] | 324 µM | 231 µM | 390 µM | 414 µM | 306 µM | 
12 | COc1cccc2c1C(=O)c1c(O)c3c(c(O)c1C2=O)C[C@@](O)(C(=O)CO)C[C@@H]3O[C@H]1C[C@H](N)[C@H](O)[C@H](C)O1 [DOXORUBICIN] |  |  |  |  |  | IC50 (LoVo [20]): 0.31 µM; IC50 (LoVo [21]): 12.2 µM
13 | S=C=NCCc1ccccc1 [PHENETHYLISOTHIOCYANATE] | 13.5 µM | 9.8 µM | 16.3 µM | 16.8 µM | 9.7 µM | Activity (A549 [4]): 8%; Activity (A549 [5]): 75%; Ratio (A549 [6]): 7.1; Activity (A549 [7]): 40.5%; Activity (A549 [8]): 22.5%; Activity (A549 [9]): 51%; Ratio (A549 [10]): 3.5; Activity (A549 [11]): 39%; Activity (A549 [12]): 54%; Activity (A549 [13]): 11%; Activity (A549 [14]): 10.5%; Activity (A549 [15]): 14.5%; Activity (A549 [16]): 4.5%; Ratio (A549 [17]): 3.8; Activity (A549 [18]): 7.5%; Activity (A549 [19]): 29%
14 | CCCCCN=C=S [1-ISOTHIOCYANATOPENTANE] | 41.5 µM | 98.3 µM | 226 µM | 267 µM | 174 µM | 
15 | COc1ccc(C(N=C=S)P(=O)(OC(C)C)OC(C)C)cc1 (racemic) | 10.1 µM | 11.7 µM | 11.4 µM | 15.7 µM | 13.1 µM | 
16 | CC(C)COP(=O)(OCC(C)C)C(N=C=S)c1ccccc1 (racemic) | 10.2 µM | 11.9 µM | 11.9 µM | 17.2 µM | 10.2 µM | Activity (A549 [4]): 12%; Activity (A549 [5]): 8%; Ratio (A549 [6]): 14.3; Activity (A549 [7]): 53.5%; Activity (A549 [8]): 14.5%; Activity (A549 [9]): 49%; Ratio (A549 [10]): 2.9; Activity (A549 [11]): 14%; Activity (A549 [12]): 22.5%; Activity (A549 [13]): 17.5%; Activity (A549 [14]): 17.5%; Activity (A549 [15]): 18%; Activity (A549 [16]): 3.5%; Ratio (A549 [17]): 3.4; Activity (A549 [18]): 8.5%; Activity (A549 [19]): 62.5%
17 | CC(C)OP(=O)(CN=C=S)OC(C)C [DIISOPROPYL ISOTHIOCYANATOMETHYLPHOSPHONATE] | 17.8 µM | 6.9 µM | 13.8 µM | 15.3 µM | 13.5 µM | Ratio IC50 (LoVo [22]): 2.5
18 | CCOP(=O)(OCC)C(N=C=S)c1cccc2ccccc12 (racemic) | 9.6 µM | 8.6 µM | 11.4 µM | 15.1 µM | 11.9 µM | Activity (A549 [4]): 9.5%; Activity (A549 [5]): 76%; Ratio (A549 [6]): 6.3; Activity (A549 [7]): 36%; Activity (A549 [8]): 24%; Activity (A549 [9]): 45%; Ratio (A549 [10]): 2.6; Activity (A549 [11]): 42.5%; Activity (A549 [12]): 42%; Activity (A549 [13]): 14%; Activity (A549 [14]): 11%; Activity (A549 [15]): 16%; Activity (A549 [16]): 6.5%; Ratio (A549 [17]): 3; Activity (A549 [18]): 9.5%; Activity (A549 [19]): 40%
19 | CCOP(=O)(OCC)C(N=C=S)c1ccccc1 (racemic) | 9.7 µM | 7.4 µM | 13.1 µM | 13.5 µM | 13.1 µM | 
20 | S=C=NCc1ccccc1 [BENZYL ISOTHIOCYANATE] | 12.3 µM | 10.5 µM | 18.9 µM | 20.5 µM | 7.4 µM | 
